# Test results: patent publication US11406707B2, “STAT3 phosphorylation during graft-versus-host disease” (H. LEE MOFFITT CANCER CENTER AND RESEARCH INSTITUTE, INC., priority 2014, dated 2022)
# How the values were obtained:
# [1] = target: T1, STAT3 Y705 (Homo sapiens, UniProt P40763); assay: IL-6-STAT3 Y705 phosphorylation in DC-allostimulated donor T-cells; type: cell-based; conditions: S3I-201 50 uM, 4 hours, IL-6 pulse
# T1 construct: endogenous in cells; host or cells: primary human T cells from healthy-donor PBMC, allostimulated by monocyte-derived dendritic cells
# Experimental: T-cells were serum-starved in RPMI treated with DMSO diluent control, rapamycin 100 ng/ml (EMD Millipore, Billerica, Mass. USA), or STAT3 inhibitor S3I-201 50 uM (H. Lee Moffitt Cancer Center, Drug Discovery Core) for 4 hours. For the STAT3 experiments, the T-cells were first DC-allostimulated (DC:T-cell ratio of 1:30) for 3 days to optimize surface expression of IL-6 receptor alpha and STAT3 signaling among healthy volunteers. The T-cells were then cytokine-pulsed for 15 minutes with either IL-2 (R&D Systems) to activate the Akt-mTOR-S6 pathway, or IL-6 to stimulate STAT3 phosphorylation. The cells were then fixed and permeabilized as described, and then stained for CD3, CD4 (STAT3 experiments), phosphorylated STAT3 Y705, and phosphorylated S6.
# [2] = test system: STAT5; assay: IL-2-pulsed STAT5 phosphorylation in alloactivated T cells (flow cytometry); type: cell-based, human
# Experimental: The 3-day exposure to allogenic moDCs allows the responding T cells to increase CD25 expression and capacity to receive IL-2 signaling, while resting or stimulated T cells phosphorylate STAT3 in response to IL-6 [Betts, B. C., et al. (2011) Blood 118, 5330-5339]. […] T-cell STAT phosphorylation was determined by surface staining for CD3, followed by fixation (CytoFix; […] The percentage of STAT3 and bright STAT5 phosphorylation in the T cells is depicted by the gates in each respective histogram (FIG. 1C, D).
# [3] = test system: Foxp3 TSDR; assay: iTreg Foxp3 demethylation assay; type: cell-based, human; conditions: S3I-201 50 or 100 μM
# Text: iTreg Foxp3 demethylation assay. […] (2013) J. Immunol. 190, 3180-3188; Miyao, T., et al. (2012) Immunity 36, 262-275]. The degree of Foxp3 TSDR demethylation among iTregs from DMSO-treated allo-MLRs, purified nTregs, and Tconvs served as the controls [[…]., et al. (2013) Blood 122(13):2251-61]. For these experiments, iTregs and nTregs were sorted to select the CD4^+ CD25^+ CD127^- population. PCR products were amplified by using methylation or demethylation specific TSDR forward and reverse primers from bisulphate-treated genomic DNA of sorted natural Tregs. DNA fragments were cloned into a pCR2.1-Topo vector (Life Technologies, Grand Island, N.Y., USA) and verified by DNA sequencing. The following TSDR primers and probes were used for PCR: methylation forward [NT] ID NO:1), reverse [NT] ID NO:2), and hydrolysis probe [NT] (SEQ ID NO:3); and demethylation forward [NT] ID NO:4), reverse [NT] ID NO:5), and hydrolysis probe [NT] ID NO:6). Standards were diluted at concentrations ranging from 2^7 to 2^3 plasmid copies of each methylation or demethylation TSDR. Genomic DNA was isolated by using the DNeasy Blood and Tissue kit (Qiagen, Valencia, Calif., USA) from sorted natural or expanded iTregs. Genomic DNA (200-500 ng) was treated with bisulfite from the EZ DNA Methylation-Gold Kit (Zymo Research, Irvine, Calif., USA). […]
# [4] = test system: iTregs and Tconvs; assay: iTreg and Tconv expansion from DC-allostimulated naive CD4+ T cells; type: cell-based, human
# Experimental: To evaluate iTreg development, naive CD4^+ cells were isolated from nylon-wool-eluted T cells by magnetic-bead selection (Miltenyi Biotec), based on the positive expression of CD4 and lack of CD45RO, CD25, or both. In addition, CD127 staining of the naive CD4^+ cells was performed after the purification, to ensure depletion of natural Tregs from the cell product. Negligible amounts of CD127^-, CD25^Bright nTregs were observed after magnetic-bead purification. […] The T cells were harvested and surface stained on day 5 for CD3, -4, -25, and -127, followed by fixation and permeabilization (eBioscience), and then intracellular staining for Foxp3 [Liu, W., et al. (2006) J. Exp. Med. 203, 1701-1711; […]., et al. (2006) J. Exp. Med. 203, 1693-1700]. Tregs were characterized by gating on the live cells expressing surface CD3^+, CD4^+, and absence of CD127, followed by expression of Foxp3 and CD25^bright [Liu, W., et al. (2006) J. Exp. Med. 203, 1701-1711; […]., et al. (2006) J. Exp. Med. 203, 1693-1700]. The absolute number of iTregs and Tconv (CD4^+ CD25^-) cells was obtained by timed acquisition. The ratio of iTreg:Tconv was calculated based on the absolute number of each T-cell population.
# [5] = S3I-201 treatment of GVHD in vivo (B6 marrow +/- T-cells into Balb/c mice)
# Text: (§1) FIG. 7. B6 T-cell depleted marrow (+/− T-cells) were given to Balb/c mice. S3I-201 or vehicle was given by i.p. from day 0 to day +7 only. Mice were then followed for body weight (FIG. 7B), GVHD clinical scores (FIGS. 7C, 7D), and survival (FIG. 7A).
# as §1, with “B6” for “FIG. 7. B6”, “7A). […] All of the GVHD control mice (i.e., TCD marrow+T-cells+vehicle) have since died of GVHD.” for “7A).”
# T1 sequence (P40763 whole entry): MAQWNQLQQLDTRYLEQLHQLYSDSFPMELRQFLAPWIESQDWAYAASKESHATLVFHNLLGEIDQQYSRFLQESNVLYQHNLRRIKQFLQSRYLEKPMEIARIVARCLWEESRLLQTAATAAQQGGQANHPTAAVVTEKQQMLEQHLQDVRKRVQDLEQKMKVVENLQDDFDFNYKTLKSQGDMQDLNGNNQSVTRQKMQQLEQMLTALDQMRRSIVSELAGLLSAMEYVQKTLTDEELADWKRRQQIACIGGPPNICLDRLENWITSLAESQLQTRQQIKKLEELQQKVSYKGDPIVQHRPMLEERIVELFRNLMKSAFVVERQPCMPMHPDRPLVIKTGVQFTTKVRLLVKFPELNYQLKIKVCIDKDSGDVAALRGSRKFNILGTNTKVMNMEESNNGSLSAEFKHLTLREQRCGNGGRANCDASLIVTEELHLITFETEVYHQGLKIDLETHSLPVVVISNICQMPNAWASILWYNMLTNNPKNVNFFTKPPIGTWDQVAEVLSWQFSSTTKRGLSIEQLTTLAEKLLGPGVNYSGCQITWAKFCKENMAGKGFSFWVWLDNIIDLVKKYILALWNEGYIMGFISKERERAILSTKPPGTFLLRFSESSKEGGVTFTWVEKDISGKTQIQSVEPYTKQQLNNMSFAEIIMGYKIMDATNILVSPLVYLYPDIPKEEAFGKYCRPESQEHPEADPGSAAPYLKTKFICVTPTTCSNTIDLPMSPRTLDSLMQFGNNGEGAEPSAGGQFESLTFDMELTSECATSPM
smiles,measurement,setting,value
Cc1ccc(S(=O)(=O)OCC(=O)Nc2ccc(C(=O)O)c(O)c2)cc1 [S3I-201],IL-6-mediated STAT3 phosphorylation of Y705,[1],significantly decreased
same,"off-target effect on IL-2/STAT5 phosphorylation (geometric MFI ratio, percentage)",[2]; S3I-201 100 μM vs DMSO,decrease in IL-2/STAT5 phosphorylation
same,IL-2-induced STAT5 phosphorylation,"[2]; S3I-201 50 or 100 μM, 15 min IL-2 pulse, vs unstimulated baseline",occurred in all treated T cells
same,iTreg Foxp3 demethylation compared with DMSO,[3],significantly enhanced
same,absolute number of iTregs,"[4]; S3I-201 25 μM and 50 μM, dose-dependent, day 5",significantly increased
same,number of iTregs compared with DMSO,[4]; S3I-201 100 μM,significantly reduced
same,number of alloreactive Tconvs,"[4]; S3I-201, day 5",dramatically reduced
same,ratio of iTregs to Tconvs,"[4]; S3I-201, day 5",increased ratio
same,tolerability,[5]; 2.5 mg/kg i.p. day 0 to day +7,well tolerated
same,tolerability,[5]; 5 mg/kg i.p. day 0 to day +7,toxic
same,survival,"[5]; S3I-201 i.p. day 0 to day +7, GVHD control mice all died",alive at day +53
